Measurements taken from ChEMBL document CHEMBL5727145, “Aminoindane-, aminotetrahydronaphthalene- and aminobenzocyclobutane-derived PRMT5-inhibitors” (2018).

Target: Protein arginine N-methyltransferase 5 (Homo sapiens, UniProt O14744)
Experiment: iochemical Assay: Compounds of the invention may be tested for in vitro activity in the following assay: A histone H4 derived peptide is used as substrate (amino acid sequence: […]NH2). Full-length PRMT5 enzyme (NCBI Reference sequence NP-006100.2) was co-expressed with Hiss-MEP50 in insect cells and purified via Nickel immobilized metal affinity and gel filtration chromatograph.The 6 μL assay reactions are run in Greiner brand black 384-well low volume plates. All reactions contained assay buffer (phosphate buffered saline, 0.01% (v/v) Tween-20, 0.01% (w/v) albumin from chicken egg white, 1 mM dithiothreitol, 200 nM peptide substrate, 1 μM S-Adenosyl methionine, and 15 ng/reaction enzyme, with the enzyme being omitted from negative control reactions. Compounds were added in a volume of 100 nL from dilution series prepared in DMSO, positive and negative control reactions receiving the same volume DMSO without compound. The plates were sealed with adhesive seals and incubated for 4 hours at 37° C. Reaction progress was measured using the Transcreener™ EPIGEN methyltransferase assay (BellBrook Labs, Madison, Wis.) as recommended by the manufacturer. To each reaction 2 μL detection mix were added, containing coupling enzymes, fluorescence polarisation tracer, and AMP antibody. […]

Chain of Protein arginine N-methyltransferase 5 (O14744 whole entry): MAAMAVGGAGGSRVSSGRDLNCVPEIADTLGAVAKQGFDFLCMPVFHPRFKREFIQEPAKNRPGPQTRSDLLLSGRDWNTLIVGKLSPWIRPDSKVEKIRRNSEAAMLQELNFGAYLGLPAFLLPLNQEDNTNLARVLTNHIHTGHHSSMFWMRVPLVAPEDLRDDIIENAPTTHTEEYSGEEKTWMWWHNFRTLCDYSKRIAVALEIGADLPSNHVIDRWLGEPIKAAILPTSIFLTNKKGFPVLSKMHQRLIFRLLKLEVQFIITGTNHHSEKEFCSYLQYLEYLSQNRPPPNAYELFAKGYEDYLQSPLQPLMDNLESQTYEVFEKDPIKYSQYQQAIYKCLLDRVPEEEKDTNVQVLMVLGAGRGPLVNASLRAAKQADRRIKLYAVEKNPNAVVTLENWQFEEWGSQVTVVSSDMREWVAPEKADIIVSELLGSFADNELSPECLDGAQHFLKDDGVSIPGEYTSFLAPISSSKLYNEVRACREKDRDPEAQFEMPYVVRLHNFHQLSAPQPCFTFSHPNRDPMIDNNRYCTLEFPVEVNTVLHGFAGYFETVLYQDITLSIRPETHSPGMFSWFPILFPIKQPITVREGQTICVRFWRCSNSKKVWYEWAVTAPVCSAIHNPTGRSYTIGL

Row | Structure (SMILES) | IC50 [µM]
1 | CNC(=O)c1cccc(C(=O)NC[C@@H](O)CNC2Cc3ccccc3C2)c1 | 31.4
2 | COc1ccc(-c2cc(C(=O)NC[C@H](O)CNC3Cc4ccccc4C3)on2)cc1 | 2.45
